# Patent publication US20120029187A1, “HALOALKYLSULFONANILIDE DERIVATIVE” (Nissan Chemical Industries, Ltd., priority 2009, published 2012)
# Experiments:
# Format in all cases: in vivo
# barnyardgrass [1] = test: Test Example 1: herbicidal effects in preemergence treatment under submerged conditions; details: dose 2.52 g/a
# Procedure, shortened: (§1)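 Scoring 0 (<5% mortality) to 5 (≥90%) was done three weeks after preemergence application to the water surface of submerged (4 cm) alluvial soil, doses given as g per are. Weeds were seeded and 2.5-leaf rice transplanted on the treatment day; greenhouse at 25–30 °C.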
# bulrush [2] = test: as above; details: dose 2.52 g/a
# Procedure, shortened: as §1
# ducksalad [3] = test: as above; details: dose 2.52 g/a
# Procedure, shortened: as §1
# transplanted rice = test: Test Example 1: preemergence treatment under submerged conditions, effect on crop; details: dose 2.52 g/a
# Procedure, shortened: as §1
# barnyardgrass [4] = test: Test Example 2: herbicidal effects during the vegetation period under submerged conditions; details: treatment during the vegetation period under submerged conditions; dose 2.52 g/a
# Procedure, shortened: (§2)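 Barnyardgrass, bulrush and ducksalad were co-sown in alluvial soil flooded to 4 cm and grown in a greenhouse at 25 to 30° C. At the 1- or 2-leaf stage, water-diluted emulsifiable concentrates went onto the water surface at set doses (g/a). Herbicidal effect was scored three weeks later on a graded scale.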
# bulrush [5] = test: as above; details: treatment during the vegetation period under submerged conditions; dose 2.52 g/a
# Procedure, shortened: as §2
# ducksalad [6] = test: as above; details: treatment during the vegetation period under submerged conditions; dose 2.52 g/a
# Procedure, shortened: as §2
# Italian ryegrass [7] = test: Test Example 3: herbicidal effects in soil treatment; details: dose 3.2 g/a
# Procedure, shortened: (§3)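 Seeds were sown in sterilized diluvial soil and covered with about 1.5 cm of soil. Compounds, formulated as emulsifiable concentrates and diluted with water, were sprayed evenly over the soil surface at set doses in g/a. Herbicidal effect was scored on a rating scale three weeks later.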
# barnyardgrass [8] = test: as above; details: dose 3.2 g/a
# Procedure, shortened: as §3
# beadstraw [9] = test: as above; details: dose 3.2 g/a
# Procedure, shortened: as §3
# common chickweed [10] = test: as above; details: dose 3.2 g/a
# Procedure, shortened: as §3
# common lambsquater [11] = test: as above; details: dose 3.2 g/a
# Procedure, shortened: as §3
# common ragweed [12] = test: as above; details: dose 3.2 g/a
# Procedure, shortened: as §3
# giant foxtail [13] = test: as above; details: dose 3.2 g/a
# Procedure, shortened: as §3
# large crabgrass [14] = test: as above; details: dose 3.2 g/a
# Procedure, shortened: as §3
# posumbu knotweed [15] = test: as above; details: dose 3.2 g/a
# Procedure, shortened: as §3
# redroot pigweed [16] = test: as above; details: dose 3.2 g/a
# Procedure, shortened: as §3
# velvetleaf [17] = test: as above; details: dose 3.2 g/a
# Procedure, shortened: as §3
# water foxtail [18] = test: as above; details: dose 3.2 g/a
# Procedure, shortened: as §3
# wild oat [19] = test: as above; details: dose 3.2 g/a
# Procedure, shortened: as §3
# Italian ryegrass [20] = test: Test Example 4: herbicidal effect in foliage treatment; details: dose 3.2 g/a
# Procedure, shortened: (§4)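 Sowing in sterilized diluvial soil, ~1.5 cm cover; growth 14 d, 25–30° C greenhouse; foliar spray of water-diluted EC at predetermined g/a; scoring 3 wk later on graded scale.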
# barnyardgrass [21] = test: as above; details: dose 3.2 g/a
# Procedure, shortened: as §4
# beadstraw [22] = test: as above; details: dose 3.2 g/a
# Procedure, shortened: as §4
# common chickweed [23] = test: as above; details: dose 3.2 g/a
# Procedure, shortened: as §4
# common lambsquater [24] = test: as above; details: dose 3.2 g/a
# Procedure, shortened: as §4
# common ragweed [25] = test: as above; details: dose 3.2 g/a
# Procedure, shortened: as §4
# giant foxtail [26] = test: as above; details: dose 3.2 g/a
# Procedure, shortened: as §4
# large crabgrass [27] = test: as above; details: dose 3.2 g/a
# Procedure, shortened: as §4
# posumbu knotweed [28] = test: as above; details: dose 3.2 g/a
# Procedure, shortened: as §4
# redroot pigweed [29] = test: as above; details: dose 3.2 g/a
# Procedure, shortened: as §4
# velvetleaf [30] = test: as above; details: dose 3.2 g/a
# Procedure, shortened: as §4
# water foxtail [31] = test: as above; details: dose 3.2 g/a
# Procedure, shortened: as §4
# wild oat [32] = test: as above; details: dose 3.2 g/a
# Procedure, shortened: as §4
# [33] = three weeks after the application
structure (smiles),measurement,setting,value
CC1(C)OCN(Cc2ccccc2N(S(=O)(=O)C(F)(F)F)S(=O)(=O)C(F)(F)F)C(=O)C1F (stereo not drawn) [II-37],"A: barnyardgrass, herbicidal effect (evaluation scale 0-5)",barnyardgrass [1],5 (mortality of 90% or above (nearly complete death))
same,"B: bulrush, herbicidal effect (evaluation scale 0-5)",bulrush [2],5 (mortality of 90% or above (nearly complete death))
same,"C: ducksalad, herbicidal effect (evaluation scale 0-5)",ducksalad [3],5 (mortality of 90% or above (nearly complete death))
same,"a: transplanted rice, effect on crop (evaluation scale 0-5)",transplanted rice,2 (mortality of at least 20% and less than 40%)
same,"A: barnyardgrass, herbicidal effect (evaluation scale 0-5)",barnyardgrass [4],5 (mortality of 90% or above (nearly complete death))
same,"B: bulrush, herbicidal effect (evaluation scale 0-5)",bulrush [5],5 (mortality of 90% or above (nearly complete death))
same,"C: ducksalad, herbicidal effect (evaluation scale 0-5)",ducksalad [6],5 (mortality of 90% or above (nearly complete death))
same,"H: Italian ryegrass, herbicidal effect (evaluation scale 0-5)",Italian ryegrass [7],0 (mortality of less than 5% (almost ineffective))
same,"A: barnyardgrass, herbicidal effect (evaluation scale 0-5)",barnyardgrass [8],5 (mortality of 90% or above (nearly complete death))
same,"O: beadstraw, herbicidal effect (evaluation scale 0-5)",beadstraw [9],4 (mortality of at least 70% and less than 90%)
same,"N: common chickweed, herbicidal effect (evaluation scale 0-5)",common chickweed [10],2 (mortality of at least 20% and less than 40%)
same,"L: common lambsquater, herbicidal effect (evaluation scale 0-5)",common lambsquater [11],0 (mortality of less than 5% (almost ineffective))
same,"J: common ragweed, herbicidal effect (evaluation scale 0-5)",common ragweed [12],5 (mortality of 90% or above (nearly complete death))
same,"E: giant foxtail, herbicidal effect (evaluation scale 0-5)",giant foxtail [13],3 (mortality of at least 40% and less than 70%)
same,"D: large crabgrass, herbicidal effect (evaluation scale 0-5)",large crabgrass [14],5 (mortality of 90% or above (nearly complete death))
same,"M: posumbu knotweed, herbicidal effect (evaluation scale 0-5)",posumbu knotweed [15],0 (mortality of less than 5% (almost ineffective))
same,"K: redroot pigweed, herbicidal effect (evaluation scale 0-5)",redroot pigweed [16],3 (mortality of at least 40% and less than 70%)
same,"I: velvetleaf, herbicidal effect (evaluation scale 0-5)",velvetleaf [17],0 (mortality of less than 5% (almost ineffective))
same,"G: water foxtail, herbicidal effect (evaluation scale 0-5)",water foxtail [18],5 (mortality of 90% or above (nearly complete death))
same,"F: wild oat, herbicidal effect (evaluation scale 0-5)",wild oat [19],4 (mortality of at least 70% and less than 90%)
same,"H: Italian ryegrass, herbicidal effect",Italian ryegrass [20]; three weeks after application,3 (mortality of at least 40% and less than 70%)
same,"A: barnyardgrass, herbicidal effect",barnyardgrass [21]; three weeks after application,5 (mortality of 90% or above (nearly complete death))
same,"O: beadstraw, herbicidal effect",beadstraw [22]; three weeks after application,4 (mortality of at least 70% and less than 90%)
same,"N: common chickweed, herbicidal effect",common chickweed [23]; three weeks after application,4 (mortality of at least 70% and less than 90%)
same,"L: common lambsquater, herbicidal effect",common lambsquater [24]; three weeks after application,2 (mortality of at least 20% and less than 40%)
same,"J: common ragweed, herbicidal effect",common ragweed [25]; three weeks after application,4 (mortality of at least 70% and less than 90%)
same,"E: giant foxtail, herbicidal effect",giant foxtail [26]; three weeks after application,3 (mortality of at least 40% and less than 70%)
same,"D: large crabgrass, herbicidal effect",large crabgrass [27]; three weeks after application,4 (mortality of at least 70% and less than 90%)
same,"M: posumbu knotweed, herbicidal effect",posumbu knotweed [28]; three weeks after application,3 (mortality of at least 40% and less than 70%)
same,"K: redroot pigweed, herbicidal effect",redroot pigweed [29]; three weeks after application,2 (mortality of at least 20% and less than 40%)
same,"I: velvetleaf, herbicidal effect",velvetleaf [30]; three weeks after application,3 (mortality of at least 40% and less than 70%)
same,"G: water foxtail, herbicidal effect",water foxtail [31]; three weeks after application,5 (mortality of 90% or above (nearly complete death))
same,"F: wild oat, herbicidal effect",wild oat [32]; three weeks after application,1 (mortality of at least 5% and less than 20%)
O=C1CCSCN1Cc1ccccc1NS(=O)(=O)C(F)(F)F [II-78],"A: barnyardgrass, herbicidal effect (evaluation scale 0-5)",barnyardgrass [1],5 (mortality of 90% or above (nearly complete death))
same,"B: bulrush, herbicidal effect (evaluation scale 0-5)",bulrush [2],5 (mortality of 90% or above (nearly complete death))
same,"C: ducksalad, herbicidal effect (evaluation scale 0-5)",ducksalad [3],5 (mortality of 90% or above (nearly complete death))
same,"a: transplanted rice, effect on crop (evaluation scale 0-5)",transplanted rice,0 (mortality of less than 5% (almost ineffective))
same,"A: barnyardgrass, herbicidal effect (evaluation scale 0-5)",barnyardgrass [4],5 (mortality of 90% or above (nearly complete death))
same,"B: bulrush, herbicidal effect (evaluation scale 0-5)",bulrush [5],5 (mortality of 90% or above (nearly complete death))
same,"C: ducksalad, herbicidal effect (evaluation scale 0-5)",ducksalad [6],5 (mortality of 90% or above (nearly complete death))
same,"herbicidal effect, H: Italian ryegrass",Italian ryegrass [7],5 (mortality of 90% or above (nearly complete death))
same,"herbicidal effect, A: barnyardgrass",barnyardgrass [8],5 (mortality of 90% or above (nearly complete death))
same,"herbicidal effect, O: beadstraw",beadstraw [9],0 (mortality of less than 5% (almost ineffective))
same,"herbicidal effect, N: common chickweed",common chickweed [10],5 (mortality of 90% or above (nearly complete death))
same,"herbicidal effect, L: common lambsquater",common lambsquater [11],4 (mortality of at least 70% and less than 90%)
same,"herbicidal effect, J: common ragweed",common ragweed [12],4 (mortality of at least 70% and less than 90%)
same,"herbicidal effect, E: giant foxtail",giant foxtail [13],5 (mortality of 90% or above (nearly complete death))
same,"herbicidal effect, D: large crabgrass",large crabgrass [14],5 (mortality of 90% or above (nearly complete death))
same,"herbicidal effect, M: posumbu knotweed",posumbu knotweed [15],4 (mortality of at least 70% and less than 90%)
same,"herbicidal effect, K: redroot pigweed",redroot pigweed [16],3 (mortality of at least 40% and less than 70%)
same,"herbicidal effect, I: velvetleaf",velvetleaf [17],5 (mortality of 90% or above (nearly complete death))
same,"herbicidal effect, G: water foxtail",water foxtail [18],5 (mortality of 90% or above (nearly complete death))
same,"herbicidal effect, F: wild oat",wild oat [19],0 (mortality of less than 5% (almost ineffective))
same,"H: Italian ryegrass, herbicidal effect",Italian ryegrass [20]; [33],5 (mortality of 90% or above (nearly complete death))
same,"A: barnyardgrass, herbicidal effect",barnyardgrass [21]; [33],4 (mortality of at least 70% and less than 90%)
same,"O: beadstraw, herbicidal effect",beadstraw [22]; [33],5 (mortality of 90% or above (nearly complete death))
same,"N: common chickweed, herbicidal effect",common chickweed [23]; [33],4 (mortality of at least 70% and less than 90%)
same,"L: common lambsquater, herbicidal effect",common lambsquater [24]; [33],4 (mortality of at least 70% and less than 90%)
same,"J: common ragweed, herbicidal effect",common ragweed [25]; [33],4 (mortality of at least 70% and less than 90%)
same,"E: giant foxtail, herbicidal effect",giant foxtail [26]; [33],4 (mortality of at least 70% and less than 90%)
same,"D: large crabgrass, herbicidal effect",large crabgrass [27]; [33],4 (mortality of at least 70% and less than 90%)
same,"M: posumbu knotweed, herbicidal effect",posumbu knotweed [28]; [33],4 (mortality of at least 70% and less than 90%)
same,"K: redroot pigweed, herbicidal effect",redroot pigweed [29]; [33],4 (mortality of at least 70% and less than 90%)
same,"I: velvetleaf, herbicidal effect",velvetleaf [30]; [33],5 (mortality of 90% or above (nearly complete death))
same,"G: water foxtail, herbicidal effect",water foxtail [31]; [33],5 (mortality of 90% or above (nearly complete death))
same,"F: wild oat, herbicidal effect",wild oat [32]; [33],0 (mortality of less than 5% (almost ineffective))
